From patent US20240246977A1, “DEGRADATION OF BRUTON'S TYROSINE KINASE (BTK) BY CONJUGATION OF BTK INHIBITORS WITH E3 LIGASE LIGAND AND METHOD OF USE” (BeiGene Switzerland GmbH, priority 2021, published 2024)

Experiments:
BTK = BTK (Homo sapiens, UniProt Q06187); assay: BTK cell degradation in TMD-8 cells, HTRF assay; assay type: cell-based; set-up: endogenous in cells; host or cells: TMD-8 cells; details: 6 h treatment, IC50 (DC50) of BTK degradation
Outline: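 BTK levels read by HTRF in lysates of TMD-8 cells exposed to compounds for 6 h, eight concentrations at 6-fold steps in 0.2% DMSO. Percent degradation versus DMSO and low controls was fitted with a four-parameter equation to give DC50; Dmax is maximal degradation.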

HEK-293 cells = assay: HEK-293 cytotoxicity detection (CellTiter-Glo); assay type: cell-based; details: Homo sapiens, 72 h, 72 h incubation, CellTiter-Glo luminescence, read-out: HEK293
Outline: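 HEK-293 cells exposed 72 h to 8 compounds doses (4-fold dilutions, top stock 5 mM at 500×) in 0.2% DMSO. Viability by CellTiter-Glo luminescence; inhibition normalised to DMSO high control and low control, IC50 from four-parameter curve fit.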

Chain of BTK (Q06187 whole entry): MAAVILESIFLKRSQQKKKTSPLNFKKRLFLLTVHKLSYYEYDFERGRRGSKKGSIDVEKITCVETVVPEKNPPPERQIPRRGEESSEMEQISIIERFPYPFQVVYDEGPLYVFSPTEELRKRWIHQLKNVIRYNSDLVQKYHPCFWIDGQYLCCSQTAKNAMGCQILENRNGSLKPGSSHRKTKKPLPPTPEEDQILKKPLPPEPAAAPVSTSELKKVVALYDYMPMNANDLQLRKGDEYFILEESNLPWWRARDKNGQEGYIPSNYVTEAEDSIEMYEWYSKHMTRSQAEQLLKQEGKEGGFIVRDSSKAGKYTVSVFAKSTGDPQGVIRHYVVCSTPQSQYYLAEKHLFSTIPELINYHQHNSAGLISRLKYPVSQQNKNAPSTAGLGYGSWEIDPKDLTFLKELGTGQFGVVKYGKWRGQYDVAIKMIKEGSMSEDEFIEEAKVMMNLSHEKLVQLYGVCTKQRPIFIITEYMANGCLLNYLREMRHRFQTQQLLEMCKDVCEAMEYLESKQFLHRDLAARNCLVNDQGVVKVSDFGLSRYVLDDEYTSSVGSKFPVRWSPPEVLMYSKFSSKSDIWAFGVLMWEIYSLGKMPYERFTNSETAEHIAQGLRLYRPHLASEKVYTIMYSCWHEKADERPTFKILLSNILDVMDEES

Row | Structure (SMILES) | DC50 (BTK) [nM] | IC50 (HEK-293 cells) [µM]
1 | COc1ncccc1C(=O)NCc1ccc(-c2nn3c(c2C(N)=O)Nc2ccc(N4CCN(CC5CCN(c6ccc(N7CCC(=O)NC7=O)cc6)CC5)CC4)cc2CC3)cc1C [Example C34, 7-(4-((1-(4-(2,4-dioxotetrahydropyrimidin-1(2H)-yl)phenyl)piperidin-4-yl)methyl)piperazin-1-yl)-2-(4-((2-methoxynicotinamido)methyl)-3-methylphenyl)-9,10-dihydro-4H-benzo[d]pyrazolo[1,5-a][1,3]diazepine-3-carboxamide] | 3.91 | > 10
2 | COc1cccnc1C(=O)NCc1ccc(-c2nn3c(c2C(N)=O)Nc2ccc(N4CCN(CC5CCN(c6ccc(N7CCC(=O)NC7=O)cc6)CC5)CC4)cc2CC3)cc1C [Example C36] | 6.66 | > 10
3 | COc1cnccc1C(=O)NCc1ccc(-c2nn3c(c2C(N)=O)Nc2ccc(N4CCN(CC5CCN(c6ccc(N7CCC(=O)NC7=O)cc6)CC5)CC4)cc2CC3)cc1C [Example C37, 7-(4-((1-(4-(2,4-dioxotetrahydropyrimidin-1(2H)-yl)phenyl)piperidin-4-yl)methyl)piperazin-1-yl)-2-(4-((3-methoxyisonicotinamide)methyl)-3-methylphenyl)-9,10-dihydro-4H-benzo[d]pyrazolo[1,5-a][1,3]diazepine-3-carboxamide] | 12.4 | > 10

Further molecules by falling DC50 (BTK), results first:

Row | DC50 (BTK) [nM] | Structure (SMILES) | IC50 (HEK-293 cells) [µM]
4 | 9.19 | COc1cc(F)c(F)cc1C(=O)NCc1ccc(-c2nn3c(c2C(N)=O)Nc2ccc(N4CCN(CC5CCN(c6ccc(N7CCC(=O)NC7=O)cc6)CC5)CC4)cc2CC3)cc1C [Example C33, 2-(4-((4,5-difluoro-2-methoxybenzamido)methyl)-3-methylphenyl)-7-(4-((1-(4-(2,4-dioxotetrahydropyrimidin-1(2H)-yl)phenyl)piperidin-4-yl)methyl)piperazin-1-yl)-9,10-dihydro-4H-benzo[d]pyrazolo[1,5-a][1,3]diazepine-3-carboxamide] | > 10
5 | 7.96 | COc1cccc(C)c1C(=O)NCc1ccc(-c2nn3c(c2C(N)=O)Nc2ccc(N4CCN(CC5CCN(c6ccc(N7CCC(=O)NC7=O)cc6)CC5)CC4)cc2CC3)cc1C [Example C38, 7-(4-((1-(4-(2,4-dioxotetrahydropyrimidin-1(2H)-yl)phenyl)piperidin-4-yl)methyl)piperazin-1-yl)-2-(4-((2-methoxy-6-methylbenzamido)methyl)-3-methylphenyl)-9,10-dihydro-4H-benzo[d]pyrazolo[1,5-a][1,3]diazepine-3-carboxamide] | > 10
6 | 3.1 | COc1ccccc1C(=O)NCc1ccc(-c2nn3c(c2C(N)=O)Nc2ccc(N4CCN(CC5CCN(c6ccc(N7CCC(=O)NC7=O)cc6)CC5)CC4)cc2CC3)cc1C [Example C32, 7-(4-((1-(4-(2,4-dioxotetrahydropyrimidin-1(2H)-yl)phenyl)piperidin-4-yl)methyl)piperazin-1-yl)-2-(4-((2-methoxybenzamido)methyl)-3-methylphenyl)-9,10-dihydro-4H-benzo[d]pyrazolo[1,5-a][1,3]diazepine-3-carboxamide] | > 10
7 | 1.1 | COc1ccncc1C(=O)NCc1ccc(-c2nn3c(c2C(N)=O)Nc2ccc(N4CCN(CC5CCN(c6ccc(N7CCC(=O)NC7=O)cc6)CC5)CC4)cc2CC3)cc1C [Example C35, 7-(4-((1-(4-(2,4-dioxotetrahydropyrimidin-1(2H)-yl)phenyl)piperidin-4-yl)methyl)piperazin-1-yl)-2-(4-((4-methoxynicotinamido)methyl)-3-methylphenyl)-9,10-dihydro-4H-benzo[d]pyrazolo[1,5-a][1,3]diazepine-3-carboxamide] | > 10
